Measured values: US10023534B2 (BRISTOL-MYERS SQUIBB COMPANY, priority 2014, dated 2018)
Like-named read-outs stand apart in the source and are kept apart here.

Tests used:
Ramos RA1 B cells = experiment: Ramos FLIPR Assay (intracellular calcium flux, anti-human IgM stimulated); format: cell-based; conditions: for IC50: Ramos; for Potency Difference Ramos: ratio of IC50 value for the Comparative Example to that for the corresponding Example: Comparative Example (stereoisomer) IC50 / Example IC50
Description: Ramos FLIPR Assay […] Dye-loaded cells were pelleted (Beckmann GS-CKR, 1200 rpm, room temperature, 5 min) and resuspended at room temperature in RPMI minus phenol red with 50 mM HEPES and 10% FBS to a density of 1×10^6 cells/mL. 150 μL aliquots (150,000 cells/well) were plated into 96 well poly-D-lysine coated assay plates (BD 35 4640) and briefly centrifuged (Beckmann GS-CKR 800 rpm, 5 min, without brake). Next, 50 μL compound dilutions in 0.4% DMSO/RPMI minus phenol red+50 mM HEPES+10% FBS were added to the wells and the plate was incubated at room temperature in the dark for 1 hour. The assay plate was briefly centrifuged as above prior to measuring calcium levels. Using the […] (Molecular Devices), cells were stimulated by adding goat anti-human IgM (Invitrogen AHI0601) to 2.5 μg/mL. Changes in intracellular calcium concentrations were measured for 180 seconds and percent inhibition was determined relative to peak calcium levels seen in the presence of stimulation only. The Ramos assay measures the ability of a compound to move through the cell membrane into the cell interior. A lower IC50 value indicates a greater ability to move into the cell interior.

human recombinant Btk = human recombinant Btk (Homo sapiens (Human), UniProt Q06187); experiment: Human Recombinant Btk Enzyme Assay; format: biochemical; conditions: for Potency Difference Btk: ratio of IC50 value for the Comparative Example to that for the corresponding Example: Comparative Example (stereoisomer) IC50 / Example IC50
Sequence of human recombinant Btk (Q06187 whole entry): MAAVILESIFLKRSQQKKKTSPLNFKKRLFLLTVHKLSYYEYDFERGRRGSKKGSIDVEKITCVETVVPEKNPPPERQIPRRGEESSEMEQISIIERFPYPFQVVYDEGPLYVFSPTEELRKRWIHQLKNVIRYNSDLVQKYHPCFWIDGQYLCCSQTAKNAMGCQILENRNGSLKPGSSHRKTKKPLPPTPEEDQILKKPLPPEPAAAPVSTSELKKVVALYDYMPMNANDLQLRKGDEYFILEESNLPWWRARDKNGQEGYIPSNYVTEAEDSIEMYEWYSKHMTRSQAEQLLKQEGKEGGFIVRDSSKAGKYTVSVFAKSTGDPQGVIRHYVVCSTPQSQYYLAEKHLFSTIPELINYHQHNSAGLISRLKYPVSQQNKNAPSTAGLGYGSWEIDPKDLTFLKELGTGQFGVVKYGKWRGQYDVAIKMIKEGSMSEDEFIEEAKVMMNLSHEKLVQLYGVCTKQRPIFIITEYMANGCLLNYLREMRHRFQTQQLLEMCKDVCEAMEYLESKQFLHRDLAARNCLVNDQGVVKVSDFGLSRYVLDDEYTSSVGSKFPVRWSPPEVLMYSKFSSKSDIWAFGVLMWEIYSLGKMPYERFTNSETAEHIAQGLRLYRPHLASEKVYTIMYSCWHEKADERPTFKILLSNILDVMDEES
Description: Human Recombinant Btk Enzyme Assay
To V-bottom 384-well plates were added test compounds, human recombinant Btk (1 nM, Invitrogen Corporation), fluoresceinated peptide (1.5 μM), ATP (20 μM), and assay buffer (20 mM HEPES pH 7.4, 10 mM MgCl2, 0.015% Brij 35 surfactant and 4 mM DTT in 1.6% DMSO), with a final volume of 30 μL. After incubating at room temperature for 60 min, the reaction was terminated by adding 45 μL of 35 mM EDTA to each sample. The reaction mixture was analyzed on the Caliper LABCHIP® 3000 (Caliper, Hopkinton, Mass.) by electrophoretic separation of the fluorescent substrate and phosphorylated product. […] Compounds were dissolved at 10 mM in DMSO and evaluated at eleven concentrations.

[1] = Table 3, ATP 20 μM, 60 min room temperature, read-out: Btk IC50 value
[2] = Table 3, calcium flux, goat anti-human IgM 2.5 μg/mL, read-out: Ramos IC50 value
[3] = Homo sapiens, Table 4, read-out: Example Ramos IC50
[4] = Table 4, read-out: Example Btk IC50

| SMILES | IC50 (Ramos RA1 B cells; Homo sapiens, Table 3, calcium flux, goat anti-human IgM 2.5 μg/mL, read-out: Ramos IC50 value) [nM] | IC50 (human recombinant Btk; [1]) [nM] | IC50 (Ramos RA1 B cells; [2]) [nM] | Potency Difference Ramos: ratio of IC50 value for the Comparative Example to that for the corresponding Example (Ramos RA1 B cells) | IC50 (Ramos RA1 B cells; [3]) [nM] | Potency Difference Btk: ratio of IC50 value for the Comparative Example to that for the corresponding Example (human recombinant Btk) | IC50 (human recombinant Btk; [4]) [nM] | IC50 (Ramos RA1 B cells; Homo sapiens, Table 4, Comparative Example, read-out: Comparative Example Ramos IC50) [nM] | IC50 (human recombinant Btk; Table 4, Comparative Example, read-out: Comparative Example Btk IC50) [nM] |
| --- | --- | --- | --- | --- | --- | --- | --- | --- | --- |
| C=CC(=O)N1CCc2c(cccc2-c2c(Cl)cc(C(N)=O)c3[nH]c4c(c23)CCCC4)C1 (racemic) [Example 32, 5-(2-acryloyl-1,2,3,4-tetrahydroisoquinolin-5-yl)-6-chloro-2,3,4,9-tetrahydro-1H-carbazole-8-carboxamide] | 46 | 0.6 | – | – | – | – | – | – | – |
| C=CC(=O)N1CCc2c(cccc2-c2c(F)cc(C(N)=O)c3[nH]c4cc(C(=O)N(C)C)ccc4c23)C1 (racemic) [Example 28, 4-(2-acryloyl-1,2,3,4-tetrahydroisoquinolin-5-yl)-3-fluoro-N7,N7-dimethyl-9H-carbazole-1,7-dicarboxamide] | – | 0.17 | 17 | – | – | – | – | – | – |
| C=CC(=O)N1CCc2c(cccc2-c2c(F)cc(C(N)=O)c3[nH]c4c(c23)CC(F)(F)CC4)C1 (racemic) [Example 1, (RS)-5-(2-Acryloyl-1,2,3,4-tetrahydroisoquinolin-5-yl)-3,3,6-trifluoro-2,3,4,9-tetrahydro-1H-carbazole-8-carboxamide] | – | 0.18 | 25 | – | – | – | – | – | – |
| C=CC(=O)N1CCOc2c(-c3c(F)cc(C(N)=O)c4[nH]c5ccccc5c34)cccc21 (single isomer, unassigned) [Example 8, 4-(4-Acryloyl-3,4-dihydro-2H-benzo[b][1,4]oxazin-8-yl)-3-fluoro-9H-carbazole-1-carboxamide] | – | 0.077 | 6.9 | 9.4 | 6.9 | 19 | 0.077 | – | – |
| C=CC(=O)N1CCOc2c(-c3c(F)cc(C(N)=O)c4[nH]c5ccccc5c34)cccc21 (single isomer, unassigned) [Comparative Example 18, 4-(4-Acryloyl-3,4-dihydro-2H-benzo[b][1,4]oxazin-8-yl)-3-fluoro-9H-carbazole-1-carboxamide] | – | – | – | – | – | – | – | 65 | 1.5 |
| C=CC(=O)N1CCc2c(cccc2-c2c(F)cc(C(N)=O)c3[nH]c4cc(C(F)(F)F)ccc4c23)C1 (single isomer, unassigned) [Example 7, 4-(2-Acryloyl-1,2,3,4-tetrahydroisoquinolin-5-yl)-3-fluoro-7-(trifluoromethyl)-9H-carbazole-1-carboxamide] | – | 0.18 | 10.7 | >27 | 11 | 78 | 0.18 | – | – |
| C=CC(=O)N1CCSc2c(-c3c(F)cc(C(N)=O)c4[nH]c5ccccc5c34)cccc21 (single isomer, unassigned) [Example 14, 4-(4-acryloyl-3,4-dihydro-2H-benzo[b][1,4]thiazin-8-yl)-3-fluoro-9H-carbazole-1-carboxamide] | – | 0.073 | 7.8 | 19 | 7.8 | 60 | 0.073 | – | – |
